Measured values from patent publication US12410160B2 (Gilead Sciences, Inc., priority 2021, dated 2025).
Where two headings read alike, the source gives them in different places.

Columns and labels:
[1] = molecular target: human KHK-C (Homo sapiens (Human), UniProt P50053); assay: KHK Biochemical Assay (IC50), ADP-Glo, KHK-C; details: average of at least two separate assays
How it was run: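 Luminescent ADP-Glo read-out of ADP made by His-tagged KHK (BL21 (DE3) expression, Ni-NTA). Enzyme and compound sat together 30 min before ATP/fructose addition, then reacted 4 h at RT in Hepes pH 7.4 buffer with KCl, MgCl2, Triton-X. Quench 1 h, detection 1 h.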

[2] = test system: HepG2 cells; assay: F1P Cell-Based Assay (EC50), 13C6-fructose-1-phosphate in HepG2 cells (cell culture medium or 50% human plasma)
Description: F1P Cell-Based Assay (EC50)
Compounds were serially diluted (1:3) in DMSO. The LabCyte ECHO Acoustic dispenser system was used to pre-spot the assay plates (Greiner, Catalog #781091) with 400 nL (200-fold final dilution in 80 μL assay volume) of compound. 25,000 cells/well HepG2 cells (ATCC Catalog #HB-8065) were plated in a 40 μL volume/well in DMEM medium with 4.5 g/L glucose, 1× Penicillin-Streptomycin-Glutamine, and 10% FBS, using a BioTEK dispenser in a biological hood and incubated overnight at 37° C., 5% CO2, 90% humidity. 40 μL/well serum free assay medium (for F1P assay in cell culture medium), or 40 μL/well 100% human plasma (for F1P assay in 50% human plasma) were then added to the plates on the following day, and incubated for 1 hour at 37° C., 5% CO2, 90% humidity. ^13C6-labelled fructose (Sigma, Catalog #587621) in sterile PBS was added to the plates at a final concentration of 5 mM. The plates were incubated for 2 hours at 37° C., 5% CO2, 90% humidity. The assay was quenched by washing the cells with sterile PBS and adding 60 μL/well of 80% (v/v) methanol, 2 mM ammonium acetate and 2.5 μM Crotonyl-CoA, using a BioTEK washer-dispenser system. The plates were then sealed and stored in the −80° C. freezer until ready for RapidFire readout. ^13C6-fructose-1-phosphate in individual wells was quantified using the Agilent RapidFire High-Throughput MS system in negative mode using a […]. Mobile Phase 1 consisted of 20 mM ammonium acetate with 0.05% acetic acid in 100% methanol. Mobile phase 2 consisted of 5 mM octylamine in water (pH adjusted to 5 using acetic acid). F1P signals in individual wells were normalized by crotonyl CoA internal control.

[3] = Homo sapiens, HepG2, HepG2 cells, 50% human plasma, read-out: F1P 50% HP EC50
[4] = Homo sapiens, HepG2, read-out: F1P 10% FBS EC50, HepG2 cells, cell culture medium (10% FBS)
[5] = HepG2 cells, 50% human plasma, read-out: F1P 50% HP EC50
[6] = read-out: F1P 10% FBS EC50, HepG2 cells, cell culture medium (10% FBS)

human KHK-C, sequence (P50053 whole entry): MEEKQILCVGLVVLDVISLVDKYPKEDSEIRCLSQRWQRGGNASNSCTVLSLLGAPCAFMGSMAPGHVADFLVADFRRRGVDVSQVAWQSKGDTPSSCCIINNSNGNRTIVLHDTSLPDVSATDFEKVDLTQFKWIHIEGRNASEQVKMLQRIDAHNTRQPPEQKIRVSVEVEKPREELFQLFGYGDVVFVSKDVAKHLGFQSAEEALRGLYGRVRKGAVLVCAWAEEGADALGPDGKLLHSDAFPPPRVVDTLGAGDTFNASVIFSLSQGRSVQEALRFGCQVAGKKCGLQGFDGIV

Row | Structure (SMILES) | IC50 [1] | EC50 [2, 3] | EC50 [2, 4] | other results
1 | C[C@H]1[C@H](O)CN1c1nc(-c2ccc3c(c2)CC[C@]32COC(=O)N2)c2c(n1)C(F)(F)CC2 (single isomer, unassigned) [Example 475] | 15 nM | 207 nM | 104 nM | –
2 | COc1cc(-c2nc(N3C[C@@H](O)[C@@H]3C)nc3c2CCC3(F)F)cc2c1[C@H](NS(C)(=O)=O)CO2 (single isomer, unassigned) [Example 478] | 2.9 nM | – | 28.5 nM | EC50 [2, 5]: 55.5 nM
3 | C[C@H]1[C@H](O)CN1c1nc(-c2ccc([C@@]3(N)CCOC3)cc2)c2c(n1)C(F)(F)CC2 (single isomer, unassigned) [Example 517] | 1 nM | 6.3 nM | 4.8 nM | –
4 | C[C@H]1[C@H](O)CN1c1nc(-c2cc(F)c3c(c2)CC[C@@H]3NS(C)(=O)=O)c2c(n1)C(F)(F)CC2 (single isomer, unassigned) [Example 526] | 4.9 nM | 114 nM | 30.8 nM | –
5 | C[C@H]1[C@H](O)CN1c1nc(-c2cc(F)c3c(c2)CC[C@H]3NS(C)(=O)=O)c2c(n1)C(F)(F)CC2 (single isomer, unassigned) [Example 527] | 8 nM | 123 nM | 81.2 nM | –
6 | COc1cc(-c2nc(N3C[C@@H](O)[C@@H]3C)nc3c2CCC3(F)F)cc2c1[C@H](NS(C)(=O)=O)CO2 (single isomer, unassigned) [Example 531] | 9 nM | – | – | EC50 [2, 5]: 439 nM; EC50 [2, 6]: 55.1 nM
7 | CC[C@H]1CNC(=O)c2ccc(-c3nc(N4C[C@@H](O)[C@@H]4C)nc4c3CCC4(F)F)cc2O1 (single isomer, unassigned) [Example 592] | 7.3 nM | 56.9 nM | 15.3 nM | –
8 | CC[C@@H]1CNC(=O)c2ccc(-c3nc(N4C[C@@H](O)[C@@H]4C)nc4c3CCC4(F)F)cc2O1 (single isomer, unassigned) [Example 593] | 7.5 nM | – | – | EC50 [2, 5]: 58.7 nM; EC50 [2, 6]: 22.8 nM
9 | C[C@H]1[C@H](O)CN1c1nc(-c2ccc3c(c2)O[C@@H](CF)CNC3=O)c2c(n1)C(F)(F)CC2 (single isomer, unassigned) [Example 595] | 4.4 nM | 51 nM | 34.9 nM | –
10 | C[C@H]1[C@H](O)CN1c1nc(-c2ccc3c(c2)O[C@H](CF)CNC3=O)c2c(n1)C(F)(F)CC2 (single isomer, unassigned) [Example 596] | 2 nM | 13.6 nM | 12.2 nM | –
11 | C[C@H]1CCN1c1nc(-c2ccc3c(c2)[C@@H](NS(C)(=O)=O)CC3)c2c(n1)C(F)(F)CC2 (single isomer, unassigned) [Example 609] | 1 nM | 54.7 nM | 10.7 nM | –
12 | C[C@H]1[C@H](O)CN1c1nc(-c2ccc3c(c2)[C@H](NS(C)(=O)=O)CO3)c2c(n1)C(F)(F)CC2 (single isomer, unassigned) [Example 615] | 3.5 nM | – | – | EC50 [2, 5]: 30.7 nM; EC50 [2, 6]: 16.1 nM
13 | C[C@H]1[C@H](O)CN1c1nc(-c2cccc([C@@H]3CCS(=O)(=O)N3)c2)c2c(n1)C(F)(F)CC2 (single isomer, unassigned) [Example 618] | 11.2 nM | – | – | EC50 [2, 5]: 24 nM; EC50 [2, 6]: 18.1 nM
14 | C[C@H]1[C@H](O)CN1c1nc(-c2ccc3c(c2)[C@@H](NS(C)(=O)=O)CC3)c2c(n1)C(F)(F)CC2 (single isomer, unassigned) [Example 622] | 1.5 nM | 46.1 nM | 8.8 nM | –
15 | C[C@H]1[C@H](O)CN1c1nc(-c2ccc3c(c2)[C@H](NS(C)(=O)=O)CC3)c2c(n1)C(F)(F)CC2 (single isomer, unassigned) [Example 623] | 1.3 nM | 34.8 nM | 6.8 nM | –
16 | C[C@H]1[C@H](O)CN1c1nc(-c2ccc3c(c2)C(C)(C)C[C@H]3NS(C)(=O)=O)c2c(n1)C(F)(F)CC2 (single isomer, unassigned) [Example 631] | 10.7 nM | > 500 nM | 78.9 nM | –
17 | C[C@H]1[C@H](O)CN1c1nc(-c2ccc3c(c2)S(=O)(=O)C[C@@H]3N)c2c(n1)C(F)(F)CC2 (single isomer, unassigned) [Example 662] | 3.1 nM | 17.2 nM | 22.6 nM | –
18 | C[C@H]1[C@H](O)CN1c1nc(-c2ccc([C@@H](N)CC#N)cc2)c2c(n1)C(F)(F)CC2 (single isomer, unassigned) [Example 779] | 7.1 nM | 37.7 nM | 47.5 nM | –
19 | NC1(c2ccc(-c3nc(N4CC(F)(F)[C@H]4CO)nc4c3CCC4(F)F)cc2)CS(=O)(=O)C1 (single isomer, unassigned) [Example 783] | 98.7 nM | > 500 nM | > 500 nM | –
20 | NC1(c2ccc(-c3nc(N4CC(F)(F)[C@@H]4CO)nc4c3CCC4(F)F)cc2)CS(=O)(=O)C1 (single isomer, unassigned) [Example 784] | 7.9 nM | 91.9 nM | 119 nM | –
21 | C[C@H]1[C@H](O)CN1c1nc(-c2cc(F)c3c(c2)OC[C@H]3NS(C)(=O)=O)c2c(n1)C(F)(F)CC2 (single isomer, unassigned) [Example 812] | – | 40.3 nM | 11.2 nM | IC50 ([1]; ADP-Glo): 0.7 nM
22 | C[C@H]1[C@H](O)CN1c1nc(-c2ccc3c(c2)CC[C@H]3NS(C)(=O)=O)c2c(n1)C(F)(F)CC2 [Example 473, N—((R)-5-(7,7-difluoro-2-((2S,3R)-3-hydroxy-2-methylazetidin-1-yl)-6,7-dihydro-5H-cyclopenta[d]pyrimidin-4-yl)-2,3-dihydro-1H-inden-1-yl)methanesulfonamide] | 7.5 nM | 111 nM | 63.5 nM | –
23 | N#C[C@H]1CCN1c1nc(-c2ccc([C@@H](N)C(F)F)cc2)c2c(n1)C(F)(F)CC2 [Example 660, (2R)-1-[4-[4-[(1R)-1-amino-2,2-difluoro-ethyl]phenyl]-7,7-difluoro-5,6-dihydrocyclopenta[d]pyrimidin-2-yl]azetidine-2-carbonitrile] | – | 26.7 nM | 19.8 nM | –
24 | C[C@H]1[C@H](O)CN1c1nc(-c2ccc3c(c2)CCS3(=N)=O)c2c(n1)C(F)(F)CC2 (stereo partly drawn) [Example 664, (2S,3R)-1-[7,7-difluoro-4-(1-imino-1-oxo-2,3-dihydrobenzothiophen-5-yl)-5,6-dihydrocyclopenta[d]pyrimidin-2-yl]-2-methyl-azetidin-3-ol] | – | – | – | EC50 ([2]; Homo sapiens, HepG2, read-out: F1P 10% FBS EC50): 80.2 nM; EC50 ([2]; Homo sapiens, HepG2, read-out: F1P 50% HP EC50): 78.6 nM
25 | C[C@H]1[C@H](O)CN1c1nc(-c2ccc3c(c2)S(=O)(=O)CC3NS(C)(=O)=O)c2c(n1)C(F)(F)CC2 (stereo partly drawn) [Example 665, N-[6-[7,7-difluoro-2-[(2S,3R)-3-hydroxy-2-methyl-azetidin-1-yl]-5,6-dihydrocyclopenta[d]pyrimidin-4-yl]-1,1-dioxo-2,3-dihydrobenzothiophen-3-yl]methanesulfonamide] | – | 88.4 nM | 52.7 nM | –
26 | C[C@H]1[C@H](O)CN1c1nc(-c2cccc(N=S3(=O)CCOCC3)c2)c2c(n1)C(F)(F)CC2 [Example 673, (2S,3R)-1-[7,7-difluoro-4-[3-[(4-oxo-1,4-oxathian-4-ylidene)amino]phenyl]-5,6-dihydrocyclopenta[d]pyrimidin-2-yl]-2-methyl-azetidin-3-ol] | – | 75.8 nM | 20.3 nM | –
27 | C[C@H]1[C@H](O)CN1c1nc(-c2ccc3c(c2)S(C)(=O)=NC3)c2c(n1)C(F)(F)CC2 (stereo partly drawn) [Example 805, (2S,3R)-1-[7,7-difluoro-4-(1-methyl-1-oxo-3H-1,2-benzothiazol-6-yl)-5,6-dihydrocyclopenta[d]pyrimidin-2-yl]-2-methyl-azetidin-3-ol] | – | 74.1 nM | 67.9 nM | –
28 | COC(=O)N[C@H]1COc2cc(-c3nc(N4C[C@@H](O)[C@@H]4C)nc4c3CCC4(F)F)ccc21 [Example 814, Methyl N-[(3R)-6-[7,7-difluoro-2-[(2S,3R)-3-hydroxy-2-methyl-azetidin-1-yl]-5,6-dihydrocyclopenta[d]pyrimidin-4-yl]-2,3-dihydrobenzofuran-3-yl]carbamate] | – | 155 nM | 91.6 nM | –
29 | COC(=O)N[C@@H]1COc2cc(-c3nc(N4C[C@@H](O)[C@@H]4C)nc4c3CCC4(F)F)ccc21 [Example 815, Methyl N-[(3S)-6-[7,7-difluoro-2-[(2S,3R)-3-hydroxy-2-methyl-azetidin-1-yl]-5,6-dihydrocyclopenta[d]pyrimidin-4-yl]-2,3-dihydrobenzofuran-3-yl]carbamate] | – | 138 nM | 64.3 nM | –
